These results are taken from patent US20110104159A1, “COMPOSITIONS AND METHODS FOR TREATING, CONTROLLING, REDUCING, AMELIORATING, OR PREVENTING ALLERGY” (priority 2006, published 2011).

Molecules are shown by their SMILES. Like-named read-outs stand apart in the source and are kept apart here.

In data set [1] the target is human glucocorticoid receptor (Homo sapiens, UniProt P04150). The note with it: Schacke et al. [26]; cited from earlier work.
The test system of data set [2] is monkey trabecular meshwork cells. The settings on record: monkey trabecular meshwork cells [28]; cited from earlier work.
For data set [3], the system named is human HMC-1 cells. Put plainly: Ionomycin-induced cytokine/chemokine release in HMC-1 cells (Luminex). Type of data set: cell-based. The settings on record: HMC1, 18 h after ionomycin, 95% confidence limits in brackets. Here is the method:
A human mast cell line (HMC-1), a kind gift from Prof.
After 18 h stimulation at 37° C. in a 5% CO2 atmosphere, Interleukin-8 (IL-8) was measured in supernatants obtained from […] with a commercial ELISA kit from R&D Systems. The threshold sensitivity was 5 pg/ml and the inter- and intra-assay variations were less than 5%. The supernatants obtained from HMC-1 cells were aliquoted in duplicates for interleukin-6 (IL-6), IL-8, chemokine (C-C motif) ligand 5 (CCL5)/regulated upon activation, normal T-cell expressed and secreted (RANTES) and tumor necrosis factor-α (TNF-α) analysis using a high-throughput multiplex Luminex technology (Luminex 200 System; Luminex, Austin, Tx, USA) and Beadview software version 1.0 (Upstate Cell Signaling Solutions, Temecula, Calif.). Standard curves for known concentrations of recombinant human cytokines were used to convert median fluorescence intensities to cytokine concentrations in pg/ml. Only the linear portions of the standard curves were used to quantify cytokine concentrations, and in instances where the fluorescence reading exceeded the linear range of the standard curve, an appropriate dilution was performed to ensure that the concentration was in the linear portion of the curve.
The effect of BOL-303242-X on secretion of the reported cytokines and chemokines, 18 h after ionomycin ([…]) stimulation of HMC-1 cells, was determined in comparison to dexamenthasone. Compounds (1 nM-1000 nM) were added 45 min before ionomycin. Values were calculated by analyzing at least three separated experiments where concentration-response curves were measured. ^a95% Confidence limits.

The test system of data set [4] is normotensive rabbits. The settings on record: topical eye drops, normotensive rabbits [27]; cited from earlier work.

human glucocorticoid receptor, sequence (P04150 whole entry): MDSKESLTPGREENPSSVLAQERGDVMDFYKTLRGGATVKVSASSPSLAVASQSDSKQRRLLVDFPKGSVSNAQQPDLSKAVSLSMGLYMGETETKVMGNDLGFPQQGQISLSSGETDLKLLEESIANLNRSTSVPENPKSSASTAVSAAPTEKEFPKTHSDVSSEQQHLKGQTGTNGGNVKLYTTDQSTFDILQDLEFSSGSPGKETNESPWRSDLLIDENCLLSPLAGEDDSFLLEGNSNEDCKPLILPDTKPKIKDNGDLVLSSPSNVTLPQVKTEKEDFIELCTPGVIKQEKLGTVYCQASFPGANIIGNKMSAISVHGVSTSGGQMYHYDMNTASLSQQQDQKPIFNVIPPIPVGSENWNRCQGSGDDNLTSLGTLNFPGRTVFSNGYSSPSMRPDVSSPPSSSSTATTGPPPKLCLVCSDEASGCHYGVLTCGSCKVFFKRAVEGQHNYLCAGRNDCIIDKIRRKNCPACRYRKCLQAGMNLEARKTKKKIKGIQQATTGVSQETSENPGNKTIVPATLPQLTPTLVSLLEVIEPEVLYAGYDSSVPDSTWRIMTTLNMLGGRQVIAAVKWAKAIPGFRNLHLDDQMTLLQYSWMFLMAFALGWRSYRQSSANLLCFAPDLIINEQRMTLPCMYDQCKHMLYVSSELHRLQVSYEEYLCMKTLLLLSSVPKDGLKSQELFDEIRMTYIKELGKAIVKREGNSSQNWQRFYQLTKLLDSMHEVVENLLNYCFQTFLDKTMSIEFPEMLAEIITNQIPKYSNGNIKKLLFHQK

For `Cc1ccc2c(NC[C@](O)(CC(C)(C)c3cc(F)cc4c3OCC4)C(F)(F)F)cccc2n1` [BOL-303242-X, (R)-1,1,1-Trifluoro-4-(5-fluoro-2,3-dihydrobenzofuran-7-yl)-4-methyl-2-{[(2-methyl-5-quinolyl)amino]methyl}pentan-2-ol], the “Binding to the human glucocorticoid receptor” value in data set [1] is “high affinity and selectivity”. For the same compound, the “Agonism in increasing myocilin expression” value in data set [2] is “partial glucocorticoid receptor agonist”. Also, the IC50 turned out to be 88.7 nM in data set [3] (read-out: IC50 (nM), CCL5/RANTES release induced by ionomycin); 83.2 nM in data set [3] (read-out: IC50 (nM), Interleukin-6 release induced by ionomycin); 66.5 nM in data set [3] (read-out: IC50 (nM), Interleukin-8 release induced by ionomycin); 43.8 nM in data set [3] (read-out: IC50 (nM), TNF-α release induced by ionomycin). For the same compound, the “Ability to increase intraocular pressure compared to dexamethasone” value in data set [4] was “reduced ability to increase intraocular pressure”.
